One test concerns the target Recombinant human FGFR1 (Homo sapiens, UniProt P11362). Briefly: Transcreener Kinase Assay of FGFR1. Type of test: biochemical. To be noted: read-out: FGFR1 (FP) IC50.
A further test addresses Recombinant human FGFR2 (Homo sapiens, UniProt P21802). The test is described as follows: Transcreener Kinase Assay of FGFR2. To be noted: read-out: FGFR2 (FP) IC50. Type of test: biochemical.
A further test concerns the target FGFR3 kinase (Homo sapiens, UniProt P22607). The test is described as follows: Z-Lyte Kinase Assay of FGFR3. Type of test: biochemical. The procedure, abridged:
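Kinase at 0.7 μg/ml with 4 μM Z-LYTE Tyr 4 peptide and ATP diluted to 300 uM (working solution, 1.33× buffer); compounds 1–0.00046 μM, 2% DMSO final. Kinase reaction and development each 1 h at RT (25-30[…]); coumarin (445 nm) and fluorescein (520 nm) emission read, inhibition from % phosphorylation.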

The subject of a further test is KG-1. The test is described as follows: Cellular Proliferation Assay (Cell Counting Kit-8), KG-1. Type of test: cell-based. The following applies: Homo sapiens, KG1 cells, 72 hours. The procedure, abridged:
(§1)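 Seeding was 30,000 (KG-1), 5,000 (SNU-16) or 1,000 (RT-112) cells per well, with compound added 24 h later. Dilutions were prepared as an 8-point series of 10 to 0.004 μM in 5% DMSO, before addition to wells.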
(Formazan colour is commonly taken as a measure of viable cells.)

The next test deals with SNU-16. Briefly: Cellular Proliferation Assay (Cell Counting Kit-8), SNU-16. It is filed as cell-based. The following applies: Homo sapiens, SNU-16 cells, 72 hours. The procedure, abridged: as §1
The next test deals with RT-112. Briefly: Cellular Proliferation Assay (Cell Counting Kit-8), RT-112. It is filed as cell-based. The following applies: Homo sapiens, RT-112 cells, 72 hours. How it is done:
Cellular Proliferation Assay
• KG-1 (ATCC Accession No. CCL-246), • SNU-16 (ATCC Accession No. CRL-5974), • RT-112 (ECACC Accession No. 85061106)
• FGFR related cancer cell proliferation is measured in 96-well plates using Cell Counting Kit-8 (Dojindo CK04-13). • Seed 30000 cells/well of KG1, 5000 cells/well of SNU16, and 1000 cells/well of RT112 in a volume of 100 μL/well in growth media. • After 24 hours, dilute the compound to 10, 3.3, 1.1, 0.37, 0.12, 0.04, 0.013, 0.004 μM, keeping the DMSO concentration at 5%. • Add 10 μL of 8-point compound series to the wells of culturing cells. • Incubate at 37° C. and 5% CO2 for 72 hours • Add 10 μL/well of CCkit8 and incubate at 37° C. and 5% CO2 for an hour • Detect the optical density of each well at 450 nm on Labsystems Multiskan K3.
• ODcompound well represents the optical density of cells treated with compound. • ODcell well represents the optical density of cells without compounds treatment. (only 0.5% DMSO) • ODcontrol well represents the optical density of culture media background
The concentration of compound providing 50% of proliferation inhibition was calculated using Excel Fit.

Broadly, the IC50 is the concentration that gives 50% inhibition.

Molecules are shown by their SMILES.

Chain of Recombinant human FGFR1 (P11362 22-822): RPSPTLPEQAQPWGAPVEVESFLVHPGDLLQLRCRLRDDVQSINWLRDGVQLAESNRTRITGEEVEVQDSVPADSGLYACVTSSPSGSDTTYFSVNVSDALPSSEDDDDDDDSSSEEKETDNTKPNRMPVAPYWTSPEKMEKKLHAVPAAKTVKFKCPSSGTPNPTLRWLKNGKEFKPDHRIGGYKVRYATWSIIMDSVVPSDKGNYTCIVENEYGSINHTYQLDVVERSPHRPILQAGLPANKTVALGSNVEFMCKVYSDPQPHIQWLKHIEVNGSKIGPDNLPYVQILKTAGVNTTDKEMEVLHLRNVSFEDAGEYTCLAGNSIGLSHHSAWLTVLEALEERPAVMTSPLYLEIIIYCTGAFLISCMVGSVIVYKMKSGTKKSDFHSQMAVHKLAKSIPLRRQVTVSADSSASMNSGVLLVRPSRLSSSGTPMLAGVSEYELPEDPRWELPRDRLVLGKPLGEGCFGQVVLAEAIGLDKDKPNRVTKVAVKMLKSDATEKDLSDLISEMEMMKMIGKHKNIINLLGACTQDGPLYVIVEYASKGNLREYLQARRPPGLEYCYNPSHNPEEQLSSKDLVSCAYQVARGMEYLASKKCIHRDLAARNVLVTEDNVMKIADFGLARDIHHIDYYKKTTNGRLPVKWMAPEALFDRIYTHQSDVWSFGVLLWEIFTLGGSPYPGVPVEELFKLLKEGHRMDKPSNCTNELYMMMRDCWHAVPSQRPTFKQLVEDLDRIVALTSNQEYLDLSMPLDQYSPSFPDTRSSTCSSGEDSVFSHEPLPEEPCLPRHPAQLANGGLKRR
Chain of FGFR3 kinase (P22607 23-806): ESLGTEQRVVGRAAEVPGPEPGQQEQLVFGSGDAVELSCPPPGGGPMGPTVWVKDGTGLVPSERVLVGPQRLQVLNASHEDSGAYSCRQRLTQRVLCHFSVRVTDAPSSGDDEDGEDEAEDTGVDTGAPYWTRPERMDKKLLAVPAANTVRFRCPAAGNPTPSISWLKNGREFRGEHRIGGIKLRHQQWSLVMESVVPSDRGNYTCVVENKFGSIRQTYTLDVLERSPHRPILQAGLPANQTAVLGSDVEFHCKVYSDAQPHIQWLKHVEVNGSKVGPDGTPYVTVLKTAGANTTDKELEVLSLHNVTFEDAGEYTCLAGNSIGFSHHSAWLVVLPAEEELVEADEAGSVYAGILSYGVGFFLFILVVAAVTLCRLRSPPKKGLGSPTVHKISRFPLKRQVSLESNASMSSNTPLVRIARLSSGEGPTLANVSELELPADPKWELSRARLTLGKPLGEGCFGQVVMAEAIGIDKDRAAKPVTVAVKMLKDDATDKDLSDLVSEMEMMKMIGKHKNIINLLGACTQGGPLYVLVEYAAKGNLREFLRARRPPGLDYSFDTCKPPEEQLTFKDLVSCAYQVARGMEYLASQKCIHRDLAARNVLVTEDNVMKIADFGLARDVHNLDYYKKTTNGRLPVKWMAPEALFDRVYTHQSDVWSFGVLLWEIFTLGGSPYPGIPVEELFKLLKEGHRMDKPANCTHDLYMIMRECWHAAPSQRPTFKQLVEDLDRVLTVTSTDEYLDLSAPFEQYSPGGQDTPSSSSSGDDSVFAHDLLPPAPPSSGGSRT
Chain of Recombinant human FGFR2 (P21802 22-821): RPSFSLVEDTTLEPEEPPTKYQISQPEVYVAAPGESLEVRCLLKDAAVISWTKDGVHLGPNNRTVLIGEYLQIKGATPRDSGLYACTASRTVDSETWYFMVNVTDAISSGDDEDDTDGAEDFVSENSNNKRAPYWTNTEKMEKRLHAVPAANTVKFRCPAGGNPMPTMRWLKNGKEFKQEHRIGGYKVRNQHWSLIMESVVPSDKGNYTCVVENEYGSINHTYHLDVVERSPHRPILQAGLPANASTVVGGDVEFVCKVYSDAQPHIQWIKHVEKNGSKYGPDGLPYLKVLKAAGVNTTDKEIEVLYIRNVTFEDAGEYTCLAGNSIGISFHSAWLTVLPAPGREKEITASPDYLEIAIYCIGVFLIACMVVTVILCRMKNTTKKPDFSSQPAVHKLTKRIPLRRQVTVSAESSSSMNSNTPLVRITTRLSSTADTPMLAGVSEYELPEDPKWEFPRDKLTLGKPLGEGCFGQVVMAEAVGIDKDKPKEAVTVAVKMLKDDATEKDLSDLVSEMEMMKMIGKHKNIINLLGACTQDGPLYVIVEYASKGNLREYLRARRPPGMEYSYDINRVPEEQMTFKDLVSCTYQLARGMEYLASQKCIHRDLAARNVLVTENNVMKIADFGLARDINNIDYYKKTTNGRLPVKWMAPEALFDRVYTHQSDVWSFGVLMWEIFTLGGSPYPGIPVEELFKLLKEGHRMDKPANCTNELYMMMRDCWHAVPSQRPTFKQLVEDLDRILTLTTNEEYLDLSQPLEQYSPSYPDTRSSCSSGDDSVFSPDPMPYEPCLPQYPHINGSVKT

In the case of `CNC(=O)c1cc(CCc2cnc(Nc3cnn(-c4ccc(C)nc4)c3)nc2)c(Cl)c(OC)c1` [Compound 152], the IC50 at Recombinant human FGFR1 was found to be 19 nM; on Recombinant human FGFR2, 12 nM; against FGFR3 kinase, 38 nM; in the test with KG-1, 56 nM; with SNU-16, 29 nM; with RT-112, 88 nM.
Consider `CNC(=O)c1cc(CCc2cnc(Nc3cnn(C4CCCC4)c3)nc2)c(F)c(OC)c1` [Compound 122], for which the IC50 at Recombinant human FGFR1 stood at 14 nM; at Recombinant human FGFR2, 6 nM; at FGFR3 kinase it was 9 nM; in the test on KG-1, 20 nM; with SNU-16, 13 nM; with RT-112, 67 nM.
On to `CNC(=O)c1cc(CCc2cnc(Nc3cnn(CC(F)(F)F)c3)nc2)c(F)c(OC)c1` [Compound 36], for which the IC50 on Recombinant human FGFR1 came out at 21 nM; at Recombinant human FGFR2, 616 nM; against FGFR3 kinase, 31 nM; with KG-1 it was 52 nM; in the test on SNU-16, 29 nM; with RT-112, 160 nM.
Consider `CNC(=O)c1cc(CCc2cnc(Nc3ccc(N4CCCCC4=O)cc3)nc2)c(F)c(OC)c1` [Compound 145, 4-fluoro-3-methoxy-N-methyl-5-(2-(2-(4-(2-oxopiperidin-1-yl)phenylamino)pyrimidin-5-yl)ethyl)benzamide], for which the IC50 on Recombinant human FGFR1 was 37 nM; at Recombinant human FGFR2 it was 13 nM; at FGFR3 kinase, 32 nM; in the test with KG-1, 154 nM; in the test on SNU-16 it was 52 nM; with RT-112, 260 nM.
For `CCN1CCN(c2cc(Nc3ncc(CCc4cc(OC)cc(C(=O)NOC)c4)cn3)ccn2)CC1` [Compound 76], the IC50 on Recombinant human FGFR1 is 5 nM; at Recombinant human FGFR2, 4 nM; on FGFR3 kinase it was 8 nM; in the test with KG-1, 43 nM; in the test with SNU-16, 16 nM; in the test with RT-112 it was 67 nM.
For `CNC(=O)c1cc(CCc2cnc(Nc3cnn(CC4CCN(C)CC4)c3)nc2)c(F)c(OC)c1` [Compound 137], the half-inhibitory concentration (IC50) at Recombinant human FGFR1 is 12 nM; at Recombinant human FGFR2 it was 6 nM; on FGFR3 kinase it was 7 nM; in the test with KG-1 it was 319 nM; in the test with SNU-16, 29 nM; in the test with RT-112, 86 nM.
Turning to `CCN1CCN(c2ccc(Nc3ncc(CCc4cc(C(=O)NC)cc(OC)c4F)cn3)cc2)CC1` [Compound 44], the IC50 at Recombinant human FGFR1 is 5 nM; on Recombinant human FGFR2 it was 4 nM; on FGFR3 kinase, 9 nM; with KG-1 it was 9 nM; with SNU-16 it was 15 nM; with RT-112, 51 nM.
On to `CNC(=O)c1cc(CCc2cnc(Nc3cnc4ccnn4c3)nc2)c(F)c(OC)c1` [Compound 94], for which the half-inhibitory concentration (IC50) was found to be 161 nM on Recombinant human FGFR1; 53 nM on Recombinant human FGFR2; 213 nM on FGFR3 kinase; 344 nM with KG-1; 170 nM with SNU-16; 287 nM with RT-112.
Turning to `CNC(=O)c1cc(CCc2cnc(Nc3cnn(CCN4CCCC4)c3)nc2)c(F)c(OC)c1` [Compound 135], the IC50 at Recombinant human FGFR1 stood at 22 nM; at Recombinant human FGFR2 it was 19 nM; on FGFR3 kinase it was 22 nM; with KG-1, 368 nM; in the test with SNU-16 it was 46 nM; in the test on RT-112 it was 230 nM.
With `CCN1CC(n2cc(Nc3ncc(CCc4cc(C(=O)NC)cc(OC)c4F)cn3)cn2)C1` [Compound 167], the IC50 on Recombinant human FGFR1 was found to be 18 nM; at Recombinant human FGFR2 it was 10 nM; on FGFR3 kinase, 15 nM; in the test on KG-1, 62 nM; in the test on SNU-16, 48 nM; in the test on RT-112, 382 nM.
`CNC(=O)c1cc(CCc2cnc(Nc3cccnc3OC)nc2)c(F)c(OC)c1` [Compound 63]: the IC50 at Recombinant human FGFR1 stood at 195 nM; on Recombinant human FGFR2, 27 nM; against FGFR3 kinase, 243 nM; with KG-1 it was 427 nM; with SNU-16, 419 nM; in the test on RT-112, 895 nM.
Consider `CCN1CCC(Cn2cc(Nc3ncc(CCc4cc(C(=O)NC)cc(OC)c4Cl)cn3)cn2)CC1` [Compound 155], for which the IC50 at Recombinant human FGFR1 was found to be 10 nM; at Recombinant human FGFR2, 4 nM; at FGFR3 kinase, 4 nM; with KG-1, 461 nM; in the test with SNU-16, 18 nM; with RT-112, 12 nM.
In the case of `CNC(=O)c1cc(CCc2cnc(Nc3ccc(CN4CCOCC4)cn3)nc2)c(F)c(OC)c1` [Compound 92, 4-fluoro-3-methoxy-N-methyl-5-(2-(2-((5-(morpholinomethyl)pyridin-2-yl)amino)pyrimidin-5-yl)ethyl)benzamide], the IC50 was 164 nM on Recombinant human FGFR1; 40 nM at Recombinant human FGFR2; 198 nM at FGFR3 kinase; 255 nM with KG-1; 238 nM in the test on SNU-16; 831 nM with RT-112.
For `CONC(=O)c1cc(CCc2cnc(Nc3ccc4nccn4c3)nc2)cc(OC)c1` [Compound 65], the IC50 on Recombinant human FGFR1 amounted to 48 nM; on Recombinant human FGFR2, 28 nM; against FGFR3 kinase, 112 nM; in the test on KG-1 it was 203 nM; with SNU-16 it was 55 nM; in the test with RT-112, 296 nM.
Turning to `CNC(=O)c1cc(CCc2cnc(Nc3ccc(N4CCOCC4)cc3)nc2)c(F)c(OC)c1` [Compound 11], the IC50 was found to be 18 nM on Recombinant human FGFR1; 9 nM on Recombinant human FGFR2; 7 nM on FGFR3 kinase; 40 nM in the test with KG-1; 28 nM with SNU-16; 34 nM with RT-112.
For the compound `CNC(=O)c1cc(CCc2cnc(Nc3ccn4ccnc4c3)nc2)c(F)c(OC)c1` [Compound 66], the IC50 came out at 18 nM at Recombinant human FGFR1; 7 nM at Recombinant human FGFR2; 25 nM at FGFR3 kinase; 194 nM in the test with KG-1; 55 nM with SNU-16; 201 nM in the test with RT-112.
As for `CCN1CCC(n2cc(Nc3ncc(CCc4cc(C(=O)NC)cc(OC)c4F)cn3)cn2)CC1` [Compound 176], the IC50 at Recombinant human FGFR1 turned out to be 7 nM; at Recombinant human FGFR2, 7 nM; against FGFR3 kinase, 8 nM; with KG-1, 66 nM; in the test with SNU-16, 17 nM; in the test with RT-112 it was 100 nM.
For the compound `CNC(=O)c1cc(CCc2cnc(Nc3cnn(CCN4CCN(C)CC4)c3)nc2)c(F)c(OC)c1` [Compound 45], the IC50 on Recombinant human FGFR1 was 14 nM; on Recombinant human FGFR2, 7 nM; against FGFR3 kinase, 10 nM; in the test on KG-1, 388 nM; with SNU-16 it was 34 nM; with RT-112, 94 nM.
`CNC(=O)c1cc(CCc2cnc(Nc3cnn(CCN(C)C)c3)nc2)c(F)c(OC)c1` [Compound 125]: the IC50 on Recombinant human FGFR1 was 28 nM; at Recombinant human FGFR2 it was 19 nM; against FGFR3 kinase, 20 nM; in the test with KG-1, 30 nM; with SNU-16, 29 nM; in the test with RT-112 it was 750 nM.
Turning to `CNC(=O)c1cc(OC)c(Cl)c(CCc2cnc(Nc3ccc(N4C[C@@H](C)N[C@@H](C)C4)cc3)nc2)c1F` [Compound 91], the IC50 was found to be 20 nM on Recombinant human FGFR1; 16 nM on Recombinant human FGFR2; 17 nM against FGFR3 kinase; 32 nM in the test with KG-1; 19 nM in the test with SNU-16; 64 nM in the test with RT-112.
Take `CNC(=O)c1cc(COc2cnc(Nc3ccc(N4CCNC(C)(C)C4)cc3)nc2)c(F)c(OC)c1` [Compound 193]: the IC50 on Recombinant human FGFR1 is 8 nM; at Recombinant human FGFR2, 5 nM; at FGFR3 kinase it was 11 nM; in the test with KG-1, 62 nM; with SNU-16, 17 nM; with RT-112, 21 nM.
On to `CNC(=O)c1cc(CCc2cnc(Nc3cnn(-c4ccccn4)c3)nc2)c(Cl)c(OC)c1` [Compound 151], for which the IC50 was 15 nM at Recombinant human FGFR1; 16 nM at Recombinant human FGFR2; 152 nM on FGFR3 kinase; 71 nM with KG-1; 149 nM with SNU-16; 626 nM in the test with RT-112.
As for `CNC(=O)c1cc(CCc2cnc(Nc3ccc(CN4CCN(C)CC4)cc3)nc2)c(F)c(OC)c1` [Compound 99], the IC50 on Recombinant human FGFR1 was 14 nM; at Recombinant human FGFR2 it was 7 nM; at FGFR3 kinase it was 12 nM; in the test on KG-1 it was 30 nM; in the test with SNU-16, 17 nM; in the test with RT-112, 110 nM.
In the case of `CNC(=O)c1cc(CCc2cnc(Nc3ccc(N4CCOCC4)cc3)nc2)c(Cl)c(OC)c1` [Compound 85], the IC50 at Recombinant human FGFR1 was 15 nM; at Recombinant human FGFR2 it was 9 nM; on FGFR3 kinase, 17 nM; in the test with KG-1, 30 nM; with SNU-16, 93 nM; with RT-112, 26 nM.

The values above are taken from patent US20160052926A1, “NOVEL PYRIMIDINE AND PYRIDINE COMPOUNDS AND USAGE THEREOF” (HUTCHISON MEDIPHARMA LIMITED, priority 2013, published 2016).
